Activity calls are given as the source filed them. Unless noted, the calls are words filed in the database; no cut-off is given here.
Columns and labels:
[1] = target: DNA damage-inducible transcript 3 protein (Mus musculus, UniProt P35639); assay type: functional, Cricetulus griseus
[2] = target: T1, Runt-related transcription factor 1/Core-binding factor subunit beta (Homo sapiens, UniProt Q01196+Q13951); assay: disruptors of Runt domain/CBFb-SMMHC interaction – biochemical, FRET, Cerulean-Runt, Venus-CBFb-SMMHC, uHTS, […] (AID 1434); assay type: protein assay
[3] = target: T1, Runt-related transcription factor 1/Core-binding factor subunit beta; assay: Runt domain/CBFb-SMMHC interaction disruptors – biochemical, TR-FRET (AID 1438); assay type: protein assay
[4] = target: T2, Aryl hydrocarbon receptor (Homo sapiens, UniProt P35869); assay: Luminescence-based cell-based high throughput dose response assay for activators of the Aryl Hydrocarbon Receptor (AHR). [Related pubchem assays: 2796 (Primary screen (AHR activators in singlicate)), 2845 (Confirmation screen (AHR activators in triplicate)), 434939 (Counterscreen (PXR activators in triplicate)), 2804 (Summary (AHR activators))]; assay type: ADME
T2 sequence (P35869 whole entry): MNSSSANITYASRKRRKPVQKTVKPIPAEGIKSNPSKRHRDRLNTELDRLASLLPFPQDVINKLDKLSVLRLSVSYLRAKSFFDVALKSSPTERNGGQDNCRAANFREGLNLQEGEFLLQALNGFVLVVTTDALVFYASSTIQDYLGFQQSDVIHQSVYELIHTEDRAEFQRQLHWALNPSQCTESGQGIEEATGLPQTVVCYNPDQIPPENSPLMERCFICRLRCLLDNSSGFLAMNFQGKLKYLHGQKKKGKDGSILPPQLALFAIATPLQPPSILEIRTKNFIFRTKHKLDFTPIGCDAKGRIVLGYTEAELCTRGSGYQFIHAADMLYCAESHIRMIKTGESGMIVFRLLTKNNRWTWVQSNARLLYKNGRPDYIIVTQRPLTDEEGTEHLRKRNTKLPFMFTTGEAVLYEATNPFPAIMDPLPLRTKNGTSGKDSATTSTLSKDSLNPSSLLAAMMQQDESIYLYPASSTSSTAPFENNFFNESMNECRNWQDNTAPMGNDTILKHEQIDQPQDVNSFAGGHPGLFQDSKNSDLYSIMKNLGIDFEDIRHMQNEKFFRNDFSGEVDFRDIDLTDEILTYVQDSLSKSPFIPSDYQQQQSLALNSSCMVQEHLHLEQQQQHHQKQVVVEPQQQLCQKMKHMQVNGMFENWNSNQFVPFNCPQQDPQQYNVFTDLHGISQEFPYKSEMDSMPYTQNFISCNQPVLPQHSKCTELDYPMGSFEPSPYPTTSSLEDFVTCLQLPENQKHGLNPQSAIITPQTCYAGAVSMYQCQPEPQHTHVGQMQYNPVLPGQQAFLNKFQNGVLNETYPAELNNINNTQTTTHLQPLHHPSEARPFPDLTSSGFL

Troponin, cardiac muscle = Troponin, cardiac muscle (Homo sapiens, UniProt P19429+P45379+P63316); assay: Fluorescence-based biochemical high throughput dose response assay for activators of the calcium sensitivity of cardiac Regulated Thin Filaments (RTF). [Related pubchem assays (depositor defined):AID493008, AID493018, AID504382, AID504383]; assay type: protein-complex assay
[5] = target: T3, DNA repair and recombination protein RAD54-like (Homo sapiens, UniProt Q92698); assay: RAD54 Holliday junction migration blockers – biochemical, fluorescence, cherry-picked samples, dose series, confirmation (AID 651657); assay type: functional
T3 sequence (Q92698 whole entry): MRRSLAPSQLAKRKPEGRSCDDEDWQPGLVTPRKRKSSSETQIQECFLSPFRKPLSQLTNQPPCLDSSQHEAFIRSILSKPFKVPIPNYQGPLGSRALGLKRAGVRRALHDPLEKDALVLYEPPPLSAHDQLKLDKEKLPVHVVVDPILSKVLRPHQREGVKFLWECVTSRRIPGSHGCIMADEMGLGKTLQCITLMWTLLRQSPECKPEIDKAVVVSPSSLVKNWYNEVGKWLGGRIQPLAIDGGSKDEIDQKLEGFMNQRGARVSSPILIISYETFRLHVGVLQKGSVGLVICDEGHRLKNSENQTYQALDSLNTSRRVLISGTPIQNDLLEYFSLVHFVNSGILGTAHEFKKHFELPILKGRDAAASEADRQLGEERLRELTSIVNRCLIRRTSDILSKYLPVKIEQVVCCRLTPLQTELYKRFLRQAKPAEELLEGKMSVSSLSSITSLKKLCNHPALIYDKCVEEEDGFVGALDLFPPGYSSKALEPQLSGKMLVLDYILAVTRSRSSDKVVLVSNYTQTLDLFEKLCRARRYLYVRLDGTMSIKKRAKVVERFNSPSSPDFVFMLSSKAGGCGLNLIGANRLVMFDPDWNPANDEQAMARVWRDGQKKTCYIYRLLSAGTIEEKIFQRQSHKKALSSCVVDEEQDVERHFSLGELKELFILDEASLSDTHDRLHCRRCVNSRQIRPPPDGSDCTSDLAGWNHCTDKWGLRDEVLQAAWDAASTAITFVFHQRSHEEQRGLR

[6] = target: Glyceraldehyde-3-phosphate dehydrogenase (Homo sapiens, UniProt P04406)
[7] = target: Alkaline phosphatase, placental type (Homo sapiens, UniProt P05187); assay: human placental alkaline phosphatase inhibition – biochemical, luminescence, confirmation (AID 1512); assay type: functional
[8] = target: E3 ubiquitin-protein ligase Mdm2/Protein Mdm4 (Homo sapiens, UniProt O15151+Q00987); assay: disruption of Mdm2/MdmX protein binding – luminescence detection, dose response (AID 504593); assay type: functional
[9] = target: T4, Heat shock factor protein 1 (Mus musculus, UniProt P38532); assay: enhancement of HSF1-driven luciferase signal – cell-based, NIH3T3, luminescence, dose retest, confirmation (AID 435004); assay type: functional;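 further: stress induced by proteasome inhibitor MG132 added 30 min after compound; luciferase reporter driven by HSF1 response element in NIH3T3 cells; actives raise luminescence as potentiators of the MG132 stress response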
T4 sequence (P38532 whole entry): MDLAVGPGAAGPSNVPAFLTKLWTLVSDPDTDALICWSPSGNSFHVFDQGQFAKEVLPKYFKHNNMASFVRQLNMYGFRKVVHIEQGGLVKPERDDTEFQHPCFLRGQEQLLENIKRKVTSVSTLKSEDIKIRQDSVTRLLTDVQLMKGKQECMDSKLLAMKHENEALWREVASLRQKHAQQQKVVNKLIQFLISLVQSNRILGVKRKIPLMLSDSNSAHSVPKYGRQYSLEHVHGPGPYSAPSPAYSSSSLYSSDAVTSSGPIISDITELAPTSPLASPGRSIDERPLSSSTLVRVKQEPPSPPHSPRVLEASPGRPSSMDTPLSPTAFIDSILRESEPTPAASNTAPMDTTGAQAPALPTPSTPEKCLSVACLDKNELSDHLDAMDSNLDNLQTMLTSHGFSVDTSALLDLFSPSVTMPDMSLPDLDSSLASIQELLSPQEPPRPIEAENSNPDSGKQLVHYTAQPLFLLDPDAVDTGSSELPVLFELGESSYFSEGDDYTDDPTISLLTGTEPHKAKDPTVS

[10] = reduction of Shn3 3'UTR-driven luciferase in osteoblasts – cell-based, Clone20 osteoblasts, firefly luciferase, cherry-picked, dose response (AID 624132); assay type: functional;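 further: firefly luciferase luminescence from reporter carrying the Shn3 3'UTR in osteoblasts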
[11] = loss of viability in HepG2 cells – cell-based, CellTiter-Glo, cherry-picked, cytotoxicity control for Shn3 inhibitor project, dose response (AID 624134); assay type: functional
[12] = non-specific 3'UTR reporter inhibition in Clone20-Shn3RL – cell-based, Renilla luciferase, cherry-picked, counter-screen for Shn3 inhibitor project, dose response (AID 624133); assay type: functional
[13] = target: T5, Type-1 angiotensin II receptor (Homo sapiens, UniProt P30556); assay: agonist activity at AGTR1 – cell-based, uHTS hits, selectivity assay for APJ receptor agonist project, dose response (AID 488865); assay type: functional;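 further: beta-arrestin recruitment to AT1 measured by enzyme fragment complementation luminescence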
T5 sequence (P30556 whole entry): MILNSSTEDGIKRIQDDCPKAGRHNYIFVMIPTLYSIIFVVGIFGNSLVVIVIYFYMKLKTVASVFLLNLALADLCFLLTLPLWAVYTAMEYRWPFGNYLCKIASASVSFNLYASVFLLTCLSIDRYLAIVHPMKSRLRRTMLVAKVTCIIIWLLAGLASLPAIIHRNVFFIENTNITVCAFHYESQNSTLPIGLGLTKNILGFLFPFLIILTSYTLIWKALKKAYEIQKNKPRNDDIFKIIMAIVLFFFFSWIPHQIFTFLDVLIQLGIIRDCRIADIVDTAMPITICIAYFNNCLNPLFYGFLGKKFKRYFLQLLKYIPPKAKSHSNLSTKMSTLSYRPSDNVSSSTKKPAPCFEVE

[14] = viability of uninfected HEp-2 cells – cell-based, HTS, cytotoxicity control for RSV inhibitor project, dose response (AID 2410); assay type: functional; conditions: human respiratory syncytial virus
[15] = target: Lysosomal acid glucosylceramidase (Homo sapiens, UniProt P04062); assay: Dose response cell-based high throughput screening assay to identify enhancers of beta-glucosidase activity. [Related pubchem assays: 784 ]; assay type: functional
HT-29 = assay: Late-stage luminescence-based cell-based dose response assay to identify inhibitors of NADPH oxidase 1 (NOX1): Cytotoxicity assay 2.; assay type: functional; conditions: Homo sapiens
[16] = target: Alpha-2C adrenergic receptor (Homo sapiens, UniProt P18825); assay: Late-stage radioligand binding dose response assay to identify inhibitors of NADPH oxidase 1 (NOX1): PDSP screen Ki Set 2. [Related pubchem assays (depositor defined):AID1792, AID1796, AID1823, AID2532, AID2538, AID2539, AID2541, AID2545, AID2556, AID2664, AID2752, AID2773, AID2808, AID2819, AID434953, AID434974, AID434992, AID434993, AID434997 …
[17] = target: 5-hydroxytryptamine receptor 2B (Homo sapiens, UniProt P41595); assay: as above
[18] = target: Kappa-type opioid receptor (Homo sapiens, UniProt P41145); assay: as above
D(3) dopamine receptor = D(3) dopamine receptor (Homo sapiens, UniProt P35462); assay: as above
[19] = target: Muscarinic acetylcholine receptor M1 (Homo sapiens, UniProt P11229); assay: as above
[20] = target: Alpha-2B adrenergic receptor (Homo sapiens, UniProt P18089); assay: as above
[21] = target: Muscarinic acetylcholine receptor M2 (Homo sapiens, UniProt P08172); assay: as above
[22] = target: Alpha-2A adrenergic receptor (Homo sapiens, UniProt P08913); assay: as above
[23] = target: T6, Rac GTPase-activating protein 1 (Homo sapiens, UniProt Q9H0H5); assay: blockers of MgcRacGAP-driven Rac1 GTP hydrolysis – biochemical, ADP Hunter fluorescence, primary and confirmatory, confirmation (AID 624330); assay type: functional
T6 sequence (Q9H0H5 whole entry): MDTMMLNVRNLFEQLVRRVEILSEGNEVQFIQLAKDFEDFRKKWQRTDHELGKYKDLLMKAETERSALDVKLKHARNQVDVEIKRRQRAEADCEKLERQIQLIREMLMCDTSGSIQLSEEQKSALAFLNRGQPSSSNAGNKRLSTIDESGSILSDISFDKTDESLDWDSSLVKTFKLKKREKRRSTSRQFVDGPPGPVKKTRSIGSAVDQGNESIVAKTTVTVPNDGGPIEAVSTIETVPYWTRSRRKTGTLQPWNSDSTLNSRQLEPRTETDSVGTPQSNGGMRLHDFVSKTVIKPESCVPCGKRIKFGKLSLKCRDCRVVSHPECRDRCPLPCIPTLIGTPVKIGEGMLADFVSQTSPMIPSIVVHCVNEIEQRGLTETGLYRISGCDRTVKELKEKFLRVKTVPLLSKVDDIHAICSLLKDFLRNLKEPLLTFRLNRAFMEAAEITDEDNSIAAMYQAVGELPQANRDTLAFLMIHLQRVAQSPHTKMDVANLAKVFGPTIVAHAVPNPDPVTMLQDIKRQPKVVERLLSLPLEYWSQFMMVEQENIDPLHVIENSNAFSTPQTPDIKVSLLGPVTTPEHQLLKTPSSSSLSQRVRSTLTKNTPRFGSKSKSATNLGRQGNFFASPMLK

## C/C(=N\NC(=O)c1nn(C)c(C)c1Br)c1ccc(NC(=O)c2ccoc2C)cc1
[1]
  Absolute IC50 (CHOP): 10 µM

## CC(=O)Nc1ccc2cc3ccc(NC(C)=O)cc3nc2c1
[2]
  IC50: 14.1 µM (active)
[3]
  IC50: > 100 µM (inactive)
[4]
  EC50: > 3.39 µM (active)
Troponin, cardiac muscle
  EC50: 38.3 µM (inactive)
[5]
  AC50: 86.2 µM (active)

## O=C(NCCO)c1cc(-c2ccc(Cl)cc2Cl)n[nH]1
[6]
  IC50: > 100 µM (not active)
[7]
  IC50: 21.1 µM (active)

## CCOC(=O)/C=C/C(=O)OCC(=O)NC(c1ccccc1)c1ccccc1
[8]
  IC50: 3.28 µM (active)
[9]
  EC50: 13.4 µM (active)
[10]
  AC50: 5.14 µM (active)
[11]
  AC50: > 70 µM (inactive)
[12]
  AC50: 22 µM (active)

## CCCSc1nc(O)c(CC)c(=O)n1C(C)CC (stereo unspecified)
[13]
  EC50: > 100 µM (inactive)

## CC(=O)c1ccc2c(c1)Nc1ccccc1S2
[14]
  CC50: 18.5 µM (active)
[15]
  EC50: > 50 µM (not active)
HT-29
  CC50: > 20 µM (not active)
[16]
  Ki: > 10 µM (inactive)
[17]
  Ki: 0.3 µM (active)
[18]
  Ki: > 10 µM (inactive)
D(3) dopamine receptor
  Ki: > 10 µM (inactive)
[19]
  Ki: > 10 µM (inactive)
[20]
  Ki: > 10 µM (inactive)
[21]
  Ki: > 10 µM (inactive)
[22]
  Ki: > 10 µM (inactive)
[23]
  IC50: 31.6 µM (active)

— ChEMBL document CHEMBL1201862, “PubChem BioAssay data set” (2004)
